Test results as given in US12370181B2, “Regimens of estrogen receptor antagonists” (Olema Pharmaceuticals, Inc., priority 2019, dated 2025).

How the values were obtained:
[1] = test system: ligand-independent ER mutants; test: AP activity in Ishikawa cells transiently transfected with ER variants; format: cell-based, human; settings: in the absence of E2; 3 days; FIGS. 5A-5F, 8A-8D
Method: (§1) The present Example describes studies in which certain estrogen receptor constructs were transfected into Ishikawa cells, which are a human endometrial cancer cell line, endogenous alkaline phosphatase is assayed. 15,000 Ishikawa cells per well were plated into a 96-well plate in […] containing 5% stripped FBS. At the time of plating, cells in each well were transiently transfected with 75-100 ng of an estrogen receptor construct (or empty vector, pSG5) using Lipofectamine LTX (ThermoFisher Scientific). Approximately 4 hours later, cells were treated with indicated amount of anti-estrogen (in the absence of E2), or 500 pM E2 (FIG. 9), and media was diluted to 2.5% stripped FBS. Cells were incubated for 3 days, media removed, and plates frozen at −80° C. […] After 40-80 minutes at 40° C., absorbance was read at 405 nm.

[2] = biological target: T1, endogenous wild type ER (Homo sapiens, UniProt P03372); test: Alkaline phosphatase (AP) activity of endogenous wild type ER in un-transfected Ishikawa cells, agonist and antagonist mode; format: cell-based
T1 construct: AP activity of endogenous wild type ER in un-transfected Ishikawa cells; endogenous in cells; host or cells: Ishikawa cells (un-transfected)
T1 sequence (P03372 1-595): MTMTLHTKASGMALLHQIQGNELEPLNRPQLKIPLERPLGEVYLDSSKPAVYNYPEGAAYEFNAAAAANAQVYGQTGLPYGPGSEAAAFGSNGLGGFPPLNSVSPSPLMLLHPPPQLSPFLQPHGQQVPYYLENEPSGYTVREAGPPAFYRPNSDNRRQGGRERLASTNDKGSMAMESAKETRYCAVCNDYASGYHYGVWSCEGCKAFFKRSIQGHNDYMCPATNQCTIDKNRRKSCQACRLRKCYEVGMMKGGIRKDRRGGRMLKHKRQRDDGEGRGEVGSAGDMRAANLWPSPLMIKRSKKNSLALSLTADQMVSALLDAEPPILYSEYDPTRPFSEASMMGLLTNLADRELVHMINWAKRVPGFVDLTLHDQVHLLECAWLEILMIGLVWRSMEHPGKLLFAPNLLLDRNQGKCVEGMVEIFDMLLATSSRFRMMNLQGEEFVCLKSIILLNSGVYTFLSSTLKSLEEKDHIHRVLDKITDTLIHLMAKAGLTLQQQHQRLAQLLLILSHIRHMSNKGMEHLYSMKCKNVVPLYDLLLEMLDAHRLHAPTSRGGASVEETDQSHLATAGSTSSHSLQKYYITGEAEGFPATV
Method: as §1
AP activity of endogenous wild type ER in un-transfected Ishikawa cells was assayed as described above.

[3] = in vivo, po, 300 mg/kg

## CC/C(=C(/c1ccc(/C=C/C(=O)O)cc1)c1ccc2[nH]ncc2c1)c1ccc(F)cc1Cl [ARN-810, Brilanestrant]
[1]
  Inhibition of activity of ligand-independent ER mutants (AP activity): none of Endoxifen, RAD-1901, ARN-810 (GDC-0810) or AZD-9496 can inhibit activity of the ligand-independent ER variants

## C[C@@H]1Cc2c([nH]c3ccccc23)[C@@H](c2c(F)cc(/C=C/C(=O)O)cc2F)N1CC(C)(C)F [AZD-9496]
[2]; agonist mode: compound alone, no added estrogen, FIG. 1A
  Agonist activity (ER activity, AP): increases ER activity in the absence of added estrogen
[2]; antagonist mode: in the presence of 500 pM 17β-estradiol (E2), FIG. 1B
  Antagonist activity (ER activity, AP): reducing ER activity when estrogen is there
[1]
  Inhibition of activity of ligand-independent ER mutants (AP activity): none of Endoxifen, RAD-1901, ARN-810 (GDC-0810) or AZD-9496 can inhibit activity of the ligand-independent ER variants

## C[C@]12CC[C@@H]3c4ccc(O)cc4C[C@@H](CCCCCCCCC[S+]([O-])CCCC(F)(F)C(F)(F)F)[C@H]3[C@@H]1CC[C@@H]2O (stereo partly drawn) [Fulvestrant]
[3]
  Blood brain barrier penetration: unable to penetrate the blood-brain barrier in analogous quantities

## CCNCCc1ccc(CN(CC)c2cc(OC)ccc2[C@@H]2CCc3cc(O)ccc3C2)cc1 [RAD-1901, Elacestrant]
[1]
  Inhibition of activity of ligand-independent ER mutants (AP activity): none of Endoxifen, RAD-1901, ARN-810 (GDC-0810) or AZD-9496 can inhibit activity of the ligand-independent ER variants
